From US5783568A, “Methods for treating cancer and other cell proliferative diseases” (Sugen, Inc., priority 1994, dated 1998)
“Also recorded” adds a separate entry of the source.

How the values were obtained:
[1] = system: sFGFR (soluble extracellular domain of FGFR2); test: Covalent cross-linking (DSS) of sFGFR, dimerization; format: biochemical, human
Description: Purified sFGFR was incubated with aFGF in the presence (lanes 2, 4, 6 and 8) or absence (lanes 1, 3, 5 and 7) of heparin for 1 hour at room temperature. The covalent cross-linker, DSS, was then added and incubation was continued for a further 45 minutes. Samples were then boiled in Laemmli sample buffer, separated by SDS-PAGE (6-12% gradient gel), and transferred to a nitro-cellulose membrane. The protein bands were visualized by blotting with anti-FGFR2 (lanes 1-4) or anti-aFGF antibodies (lanes 5-8), followed by ^125 I-protein A. I-sFGFR monomers; II-aFGF/sFGFR complex (monomeric); III-aFGF/sFGFR complex (dimeric).
(§1) A plasmid encoding the extracellular, ligand-binding domain of human FGFR2 (residues 1-355) was constructed using standard oligonucleotide-directed mutagenesis (Amersham) to introduce a translational termination codon immediately prior to the beginning of the single transmembrane domain of the receptor (Dionne et al., 1990). BamHI and SacII restriction sites were introduced 3' to the new termination codon. An XbaI-SacII fragment was isolated from the replicative form (RF) of this M13 mutagenesis product, filled in using T4 DNA polymerase (Boehringer-Mannheim) and inserted into the SmaI site of the expression vector pCVN (Dionne et al., 1990). This expression vector, which contains both the neomycin resistance and the dihydrofolate reductase genes for selection and amplification, was transfected into CHO cells following published procedures. Wigler et al., 1979, Cell 16:777-785.
Purified sFGFR (0.2 μM) was incubated with aFGF (0.6 μM) in the presence or absence of heparin. […] Cross-linking studies of aFGF alone were performed using the same procedure, except that samples were analyzed by 15% SDS-PAGE and detected by staining with Coomassie Brilliant Blue.
If aFGF activates its receptor in a similar manner, aFGF binding to sFGFR would therefore be expected to promote its dimerization. […] Samples were then analyzed by SDS-PAGE, followed by immunoblotting with either anti-FGFR2 or anti-aFGF antibodies. […]

[2] = target: sFGFR (soluble extracellular domain of FGFR2 (bek)); test: Isothermal titration calorimetry, aFGF binding to sFGFR; parameters: species or system human; conditions: ITC
Description: as §1
The binding of aFGF to sFGFR was studied using the technique of isothermal titration calorimetry (ITC). In this technique the heat liberated (or absorbed) upon binding is monitored as small aliquots of ligand are added sequentially to a solution of the receptor at known concentration, which is maintained at constant temperature. […]

| Kd ([2]; single class of binding sites, mean ± SD of three experiments, no added heparin) [nM] | Substance | sFGFR dimerization, aFGF alone ([1]; no heparin) | sFGFR dimerization, heparin plus aFGF ([1]; both heparin and aFGF) | effect on mobility of sFGFR, heparin alone ([1]; no aFGF) | effect of heparin on the aFGF/sFGFR binding parameters ([2]; sFGFR titrated into mixture of heparin and aFGF) |
| --- | --- | --- | --- | --- | --- |
| 528 ± 173 | aFGF: aFGF was expressed in E. coli and purified by binding to a heparin-sepharose column | No cross-linked dimeric form of sFGFR could be detected; also recorded: they were not detected in the presence of aFGF alone; also recorded: did not, however, result in the formation of dimers of the receptor extracellular domain |  |  |  |
|  | heparin |  | cross-linked dimers of sFGFR are formed under these conditions; also recorded: the binding of aFGF to sFGFR did lead to its dimerization | did not affect the mobility of sFGFR | no effect upon the binding parameters could be detected; also recorded: does not detectably affect the interaction; also recorded: does not influence the affinity of the aFGF/sFGFR interaction |
